Values quoted from earlier work, collected in patent US11896701B2, “Method for dyeing keratin material, comprising the use of an organic C1-C6 alkoxy silane and tannic acid” (Henkel AG & Co. KGaA, priority 2019, dated 2024).
≈ marks a conversion by molar mass, not a printed value.

Settings: 25° C.

Row | Structure (SMILES) | solubility in water | solubility in water (in words)
1 | Nc1cc(S(=O)(=O)O)cc2cc(S(=O)(=O)O)c(N=Nc3ccccc3)c(O)c12 [Acid Red 33, 5-amino-4-hydroxy-3-(phenylazo)-naphthalene-2,7-disulphonate] | 2500 µg/mL (≈ 5.9 mM) | 
2 | O=C(O)C1=NN(c2ccc(S(=O)(=O)O)cc2)C(=O)C1N=Nc1ccc(S(=O)(=O)O)cc1 (stereo not shown) [Acid Yellow 23, 4,5-dihydro-5-oxo-1-(4-sulfophenyl)-4-((4-sulfophenyl)azo)-1H-pyrazole-3-carboxylic acid] |  | readily soluble in water
3 | O=[N+]([O-])c1cc([N+](=O)[O-])c2ccc(S(=O)(=O)O)cc2c1O [Acid Yellow 9, 8-hydroxy-5,7-dinitro-2-naphthalenesulfonic acid] | above 40 g/L | 
4 | O=S(=O)(O)c1ccc(N=Nc2c(O)ccc3ccccc23)cc1 [Acid Orange 7, 4-[(2-hydroxy-1-naphthyl)azo]benzenesulfonate] | more than 7 g/L | 
